From paper PMC6668378, “Maturation of coagulation factor IX during Xase formation as deduced using factor VIII‐derived peptides” (FEBS Open Bio, 2019)
Read-outs that look alike come from different tables or passages of the source. Square brackets hold non-standard residues; d marks the D form. Ends that are not written are not given here. Peptide text beside a SMILES is read from it. sY = N[C@@H](Cc1ccc(OS(=O)(=O)O)cc1)C(=O)O

How the values were obtained:
FIX‐R170L = target: T1, FIX‐R170L (Homo sapiens, UniProt P00740, R384L); experiment: SAM5 binding of zymogenic FIX-R170L (Padua) to immobilized FVIIIa-derived peptide; conditions: no additive, FIX-R170L as analyte 10-250 nM, pH 7.5, 5 mM CaCl2
T1 construct: made in house; host or cells: Escherichia coli
T1 sequence (P00740 133-461 R384L limits assumed): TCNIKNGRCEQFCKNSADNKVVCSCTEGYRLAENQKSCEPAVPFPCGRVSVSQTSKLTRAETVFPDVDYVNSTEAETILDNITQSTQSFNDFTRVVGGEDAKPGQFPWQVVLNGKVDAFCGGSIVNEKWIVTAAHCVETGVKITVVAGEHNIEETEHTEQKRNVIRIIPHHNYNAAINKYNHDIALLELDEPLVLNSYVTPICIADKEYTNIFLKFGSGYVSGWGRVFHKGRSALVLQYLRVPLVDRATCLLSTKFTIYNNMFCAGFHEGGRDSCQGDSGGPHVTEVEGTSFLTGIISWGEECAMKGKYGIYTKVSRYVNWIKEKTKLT
Procedure: (§1) Factor IX protein variants were expressed in Escherichia coli, refolded, purified and activated as described elsewhere 8, 9, 10.
(§2) The factor VIII‐derived peptides Ser558‐Gln565 (SVDQRGNQ) and Lys713‐Arg740 (KHTGDsYsYEDSsYEDISAYLLSKNNAIEPR; sY: sulfotyrosine) were purchased from JPT Peptide Technologies. Quality was controlled by HPLC and mass spectrometry and confirmed to be of better than 90% homogeneity.
(§3) Prior to the chip calibration at 22 °C, the instrument was flushed with a flow rate of 40 μL·min^−1 for 5 to 10 min. Chip calibration was performed using the SAM5 program with gain of 180 and a phase difference of 0.363.
(§4) The SAM5 instrument with a dextran‐COOH‐coated gold chip (NanoTemper Technologies) was equilibrated using filtered and degassed PBS running buffer, and the chip was calibrated as described above. 1‐ethyl‐3‐(3‐dimethylaminopropyl) carbodiimide (EDC) and N‐hydroxysuccinimide (NHS) were dissolved in ddH2O to a final concentration of 400 mM and 100 mM, respectively. To activate the chip, EDC and NHS were mixed at equal volume, resulting in the final concentrations of 200 mM EDC and 50 mM NHS. […]
(§5) Firstly, pumps were washed using filtered and degassed running buffer (20 mM HEPES pH 7.5, 150 mM NaCl, 5 mM CaCl2). […] The sensogram SAM5 data were exported to Origin and TraceDrawer, allowing to analyse and quantify the protein binding affinities, as described in the SAM5 user manual.

FIXa R170L = target: T2, FIXa R170L (Homo sapiens, UniProt P00740, R384L); experiment: SAM5 binding of activated FIXa R170L (Padua) to immobilized FVIIIa-derived peptide; conditions: no additive, FIXa R170L as analyte 10-250 nM, pH 7.5, 5 mM CaCl2
T2 construct: made in house; host or cells: Escherichia coli
T2 sequence (P00740 227-461 R384L): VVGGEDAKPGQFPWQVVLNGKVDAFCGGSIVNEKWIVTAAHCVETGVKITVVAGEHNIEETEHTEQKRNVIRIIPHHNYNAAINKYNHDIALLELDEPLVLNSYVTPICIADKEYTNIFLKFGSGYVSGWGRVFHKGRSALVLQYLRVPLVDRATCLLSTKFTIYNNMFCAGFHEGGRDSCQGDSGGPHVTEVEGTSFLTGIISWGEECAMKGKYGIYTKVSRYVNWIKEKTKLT
T2 sequence (P00740 47-191 partner limits assumed): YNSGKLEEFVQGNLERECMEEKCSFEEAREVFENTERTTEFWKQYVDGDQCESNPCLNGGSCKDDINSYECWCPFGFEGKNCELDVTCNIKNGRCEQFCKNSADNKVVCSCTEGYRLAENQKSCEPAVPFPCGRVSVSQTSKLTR
Procedure: as §1, §2, §3, §4, §5

FIXa wt = target: T3, FIXa wt (Homo sapiens, UniProt P00740); experiment: SAM5 binding of activated FIXa wt to immobilized FVIIIa-derived peptide; conditions: no additive, FIXa wt as analyte 10-250 nM, pH 7.5, 5 mM CaCl2
T3 construct: made in house; host or cells: Escherichia coli
T3 sequence (P00740 227-461 limits assumed): as the sequence (P00740 227-461 R384L) above, with L158R counted along it
T3 sequence (P00740 47-191 partner limits assumed): as the sequence (P00740 47-191 partner limits assumed) above
Procedure: as §1, §2, §3, §4, §5

FIX wt = target: T4, FIX wt (Homo sapiens, UniProt P00740); experiment: SAM5 binding of zymogenic FIX wt to immobilized FVIIIa-derived peptide; conditions: no additive; peptide immobilized on carboxymethyl-dextran chip, FIX wt 10-250 nM in mobile phase, 40 μL/min, 4 min association, 4 min dissociation, one-to-one two-state model; 20 mM HEPES pH 7.5, 150 mM NaCl, 5 mM CaCl2
T4 construct: made in house; host or cells: Escherichia coli
T4 sequence (P00740 29-461 limits assumed): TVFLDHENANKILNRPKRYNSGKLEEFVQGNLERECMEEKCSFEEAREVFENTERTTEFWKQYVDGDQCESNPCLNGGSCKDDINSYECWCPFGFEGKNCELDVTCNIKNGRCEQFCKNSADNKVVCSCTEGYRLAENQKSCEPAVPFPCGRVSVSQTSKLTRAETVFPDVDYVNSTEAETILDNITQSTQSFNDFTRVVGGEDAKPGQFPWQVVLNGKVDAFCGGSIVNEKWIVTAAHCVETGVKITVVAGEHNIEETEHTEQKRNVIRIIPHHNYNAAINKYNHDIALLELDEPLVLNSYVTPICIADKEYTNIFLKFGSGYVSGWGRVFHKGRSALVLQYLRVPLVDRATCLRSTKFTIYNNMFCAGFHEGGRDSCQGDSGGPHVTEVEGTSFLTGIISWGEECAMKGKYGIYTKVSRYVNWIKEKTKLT
Procedure: as §1, §2, §3, §4
(§6) Firstly, pumps were washed using filtered and degassed running buffer (20 mM HEPES pH 7.5, 150 mM NaCl, 5 mM CaCl2). […] The sensogram SAM5 data were exported to Origin and TraceDrawer, allowing to analyse and quantify the protein binding affinities, as described in the SAM5 user manual. […]

[1] = tested on: activation peptide of factor IX and factor X; conditions: cited from earlier work; for affinity towards activation peptide binding site relative to active site: factor IX and factor X
From the text: In the protease factors IX and X, proteolytic activation at Arg180 (FX: Arg194) and Arg145 releases an activation peptide, triggering a conformational disorder‐to‐order transition in the serine protease domain (Figs 2 and S1). The activation peptide is positioned between the light chain (consisting of the N‐terminal Gla, EGF1 and EGF2 domains) and the trypsin‐like serine protease domain. Light and heavy chains remain covalently linked via a disulfide bond. In both factor IX and factor X, the activation peptide harbours an intriguing high‐affinity binding site for benzamidine/arginine, exceedin ...

[2] = tested on: coagulation factor VIII (nonactivated FVIII); experiment: Surface acoustic wave (SAM5) binding of FIX(a) variants to immobilized factor VIII
Procedure: as §3
as §4, with “NHS. The mixture was rapidly placed into position A1 of the tray holder. If carried out properly, the baseline will increase. Subsequently, the ligand (protein ligands at 250–500 nM concentration, peptidic ligands at 100 μM to 1 mM concentration) was placed into the tray holder at position A1. The binding of the ligand to the dextran matrix is based on electrostatic interactions.” for “NHS.”
as §6

[3] = target: activated factor VIIIa (FVIIIa); experiment: Surface acoustic wave (SAM5) binding of FIX(a) variants to immobilized activated factor VIIIa; conditions: for Kd: FVIIIa immobilized on dextran chip, SAM5 Blue surface acoustic wave, analyte 10-250 nM, 40 μL/min, 20 mM HEPES pH 7.5, 150 mM NaCl, 5 mM CaCl2, read-out: Kd, interaction with activated factor VIIIa
Procedure: pro‐FVIII was generously provided by Baxter Biosciences (Vienna, Austria). Human thrombin was purchased from Sigma. For activation, 100 μg FVIII lyophilisate was dissolved in ddH2O and spin‐dialysed by repeated concentration in 30 kDa cut‐off Amicon concentrators to a final concentration of ~ 0.2 mg·mL^−1. FVIII was activated by thrombin similar to protocols described elsewhere 11, 12. Briefly, thrombin was dissolved in 20 mM Hepes, pH 7.5, 100 mM NaCl and 5 mM CaCl2. 1 unit of thrombin was added to 1000 units of FVIII (100 μg) and incubated for 15 min at 37 °C without shaking. The protein mixture was then dialysed by in total four centrifugation steps against a 4 °C cold wash buffer consisting of 50 mM Hepes, pH 7.4, 300 mM NaCl and 2.5 mM CaCl2. The reaction was stopped after the second concentration step by adding 20 μL 50 mM PMSF to inhibit thrombin. The activation of FVIIIa was controlled by SDS/PAGE to observe the A1, A2 and A3‐C1‐C2 at ~55 kDa, 40 kDa and 70 kDa, respectively.
as §3
as §4, with “NHS. The mixture was rapidly placed into position A1 of the tray holder.” for “NHS.”
as §6

Row | Kd (FIX‐R170L) [nM] | Kd (FIXa R170L) [nM] | Kd (FIXa wt) [nM] | Kd (FIX wt) [nM] | Molecule | affinity towards activation peptide binding site relative to active site [1] | also measured
1 | 52.8 ± 9.75 | 103 ± 16.6 | 98.9 ± 11.6 | 65.8 ± 23.5 | CC[C@H](C)[C@H](NC(=O)[C@H](C)NC(=O)[C@H](CC(N)=O)NC(=O)[C@H](CC(N)=O)NC(=O)[C@H](CCCCN)NC(=O)[C@H](CO)NC(=O)[C@H](CC(C)C)NC(=O)[C@H](CC(C)C)NC(=O)[C@H](Cc1ccc(O)cc1)NC(=O)[C@H](C)NC(=O)[C@H](CO)NC(=O)[C@@H](NC(=O)[C@H](CC(=O)O)NC(=O)[C@H](CCC(=O)O)NC(=O)[C@H](Cc1ccc(OS(=O)(=O)O)cc1)NC(=O)[C@H](CO)NC(=O)[C@H](CC(=O)O)NC(=O)[C@H](CCC(=O)O)NC(=O)[C@H](Cc1ccc(OS(=O)(=O)O)cc1)NC(=O)[C@H](Cc1ccc(OS(=O)(=O)O)cc1)NC(=O)[C@H](CC(=O)O)NC(=O)CNC(=O)[C@@H](NC(=O)[C@H](Cc1c[nH]cn1)NC(=O)[C@@H](N)CCCCN)[C@@H](C)O)[C@@H](C)CC)C(=O)N[C@@H](CCC(=O)O)C(=O)N1CCC[C@H]1C(=O)N[C@@H](CCCNC(=N)N)C(=O)O [a2 peptide, KHTGDsYsYEDSsYEDISAYLLSKNNAIEPR] (H-KHTGD[sY][sY]EDS[sY]EDISAYLLSKNNAIEPR-OH) |  | 
2 |  |  |  |  | N=C(N)NCCC[C@H](N)C(=O)O [arginine] | exceeding the affinity towards the active site by an order of magnitude | 
3 |  |  |  |  | N=C(N)c1ccccc1 [benzamidine] | exceeding the affinity towards the active site by an order of magnitude | 
4 |  |  |  |  | FIX wt: recombinant zymogenic factor IX wild-type, expressed in Escherichia coli and refolded |  | affinity to cofactor VIII relative to activated FIXa wt ([2]; FIX wt versus FIXa wt): more than 10 fold; Kd ([2]; analyte incubated with 1 μM aprotinin (BPTI), FVIII immobilized on dextran chip, SAM5 Blue surface acoustic wave, analyte 10-250 nM, 40 μL/min, 20 mM HEPES pH 7.5, 150 mM NaCl, 5 mM CaCl2, read-out: Kd, interaction with nonactivated factor VIII): 65.8 ± 21.2 nM; Kd ([3]; analyte incubated with 1 μM aprotinin (BPTI)): 72.2 ± 60.2 nM; Kd ([3]; analyte incubated with 1 mM benzamidine): 83.6 ± 140 nM; higher affinity of zymogenic FIX wt than FIXa wt for activated factor VIIIa ([3]; in the presence of both benzamidine and BPTI): confirmed also when activated factor VIIIa was used as a binding partner
5 | 173 ± 57.1 | 374 ± 138 | 457 ± 121 | 172 ± 37.6 | SVDQRGNQ [558‐loop, SVDQRGNQ] |  | 
6 |  |  |  |  | basic pancreatic trypsin inhibitor [BPTI] |  | binding to activation peptide versus active site ([1]; factor IX/X, background statement, no reference given): do not bind to the activation peptide but to the active site exclusively
